Like-named read-outs stand apart in the source and are kept apart here.
Assays:
[1] = molecular target: T1, PRMT5-MEP50 enzyme complex (Homo sapiens, UniProt O14744); test: PRMT5-MEP50 Enzyme Methylation Assay (Version A); assay type: biochemical
T1 construct: Full-length (FL)-PRMT5-MEP50 enzyme complex (recombinant proteins from baculovirus-transfected Sf21 cells: FL-PRMT5; MW=73837 kDa and FL-MEP50; MW=38614); made in house; host or cells: baculovirus-transfected Sf21 cells

PRMT5 = molecular target: T2, PRMT5 (Homo sapiens, UniProt O14744); test: PRMT5 Cell Target Engagement (TE) Assay; assay type: cell-based; conditions: MCF-7 cells, treated for 3 days, symmetric dimethylation of arginine (SDMA) by high content imaging
T2 construct: seeded with 4000 MCF-7 cells in 30 μl media; endogenous in cells; host or cells: MCF-7 cells
In short: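 MCF-7 cells treated 3 days at 37 °C with a ten-point 1:3 titration from 10000 nM. Fixed cells immunostained with anti-SDMA and Alexa488 secondary; nuclear fluorescence quantified by high-content imaging versus DMSO wells, with IC50 from a 4-parameter fit.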

[2] = only one EC50 shown: 4 parameters single site sigmoidal model, 60 min pre-incubation with SAM, read-out: Enzyme Methylation Assay Version A (EC50)
[3] = first of two EC50s: 7 parameters biphasic model, read-out: Enzyme Methylation Assay Version A (EC50_1)
[4] = second of two EC50s: 7 parameters biphasic model, read-out: Enzyme Methylation Assay Version A (EC50_2)

T1 sequence (O14744 whole entry): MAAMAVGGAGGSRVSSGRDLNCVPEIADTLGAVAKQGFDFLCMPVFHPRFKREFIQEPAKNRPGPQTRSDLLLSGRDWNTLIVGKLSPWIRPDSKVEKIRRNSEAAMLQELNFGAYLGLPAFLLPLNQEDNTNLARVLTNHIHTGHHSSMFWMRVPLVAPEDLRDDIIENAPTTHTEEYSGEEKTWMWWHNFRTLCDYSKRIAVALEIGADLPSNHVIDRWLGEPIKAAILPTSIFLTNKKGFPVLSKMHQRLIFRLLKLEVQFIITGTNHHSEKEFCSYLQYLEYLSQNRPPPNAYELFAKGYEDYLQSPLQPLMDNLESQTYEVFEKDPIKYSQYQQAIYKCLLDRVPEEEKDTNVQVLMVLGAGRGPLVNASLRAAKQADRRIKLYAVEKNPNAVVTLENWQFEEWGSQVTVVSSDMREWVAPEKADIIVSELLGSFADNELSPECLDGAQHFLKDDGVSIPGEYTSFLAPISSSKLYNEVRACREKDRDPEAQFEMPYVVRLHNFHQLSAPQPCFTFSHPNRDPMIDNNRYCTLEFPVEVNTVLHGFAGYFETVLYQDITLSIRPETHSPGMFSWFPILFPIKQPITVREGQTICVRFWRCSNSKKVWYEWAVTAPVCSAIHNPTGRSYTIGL
T1 sequence (Q9BQA1 whole entry partner): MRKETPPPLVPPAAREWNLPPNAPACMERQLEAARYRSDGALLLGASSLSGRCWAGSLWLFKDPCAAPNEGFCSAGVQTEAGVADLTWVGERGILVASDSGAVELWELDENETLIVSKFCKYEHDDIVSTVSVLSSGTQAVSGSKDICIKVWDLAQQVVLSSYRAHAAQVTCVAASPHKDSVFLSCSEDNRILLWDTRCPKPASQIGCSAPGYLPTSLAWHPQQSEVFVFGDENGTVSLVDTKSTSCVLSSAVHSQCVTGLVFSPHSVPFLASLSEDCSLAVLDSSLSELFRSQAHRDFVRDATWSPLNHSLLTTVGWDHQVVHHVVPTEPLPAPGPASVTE
T2 sequence (O14744 whole entry): as the sequence (O14744 whole entry) above
T2 sequence (Q9BQA1 whole entry partner): as the sequence (Q9BQA1 whole entry partner) above

SMILES | EC50 [1, 2] [nM] | EC50 (PRMT5) [nM] | EC50 [1, 3] [nM] | EC50 [1, 4] [nM]
O=C(c1cn2cc(Br)cc(F)c2n1)N1CC[C@H](N2CCc3ccccc3C2)[C@@H](O)C1 [Example 141, (6-bromo-8-fluoroimidazo[1,2-a]pyridin-2-yl)[(3S,4S)-4-(3,4-dihydroisoquinolin-2(1H)-yl)-3-hydroxypiperidin-1-yl]methanone] | 1.1 | 21 | – | –
O=C(c1ccc2c(O)c(C3CC3)cnc2c1)N1CC[C@H](N2CCc3ccccc3C2)[C@@H](O)C1 [Example 63, (3-cyclopropyl-4-hydroxyquinolin-7-yl)((3S,4S)-4-(3,4-dihydroisoquinolin-2(1H)-yl)-3-hydroxypiperidin-1-yl)methanone] | – | 140 | 0.7 | 3310
O=C1Nc2cc(C(=O)N3CC[C@H](N4CCc5ccccc5C4)[C@@H](O)C3)ccc2OC1C1CC1 (single isomer, unassigned) [Example 81] | – | 59 | 1.6 | 5010
O=C(c1ccc2c(c1)NCCN(C1CCOC1)C2=O)N1CC[C@H](N2CCc3ccccc3C2)[C@@H](O)C1 (stereo partly drawn) [Example 65, 8-((3S,4S)-4-(3,4-dihydroisoquinolin-2(1H)-yl)-3-hydroxypiperidine-1-carbonyl)-4-(tetrahydrofuran-3-yl)-1,2,3,4-tetrahydro-5H-benzo[e][1,4]diazepin-5-one] | 3.5 | 9.6 | – | –
O=C(c1cn2cc(Br)ccc2n1)N1CC[C@H](N2CCc3ccccc3C2)[C@@H](O)C1 (single isomer, unassigned) [Example 1] | 1.1 | 9.8 | – | –
CC(=O)N1CCC(Nc2nccc(C(=O)N3CC[C@H](N4CCc5ccccc5C4)[C@@H](O)C3)c2F)CC1 [Example 18, 1-(4-((4-((3S,4S)-4-(3,4-dihydroisoquinolin-2(1H)-yl)-3-hydroxypiperidine-l-carbonyl)-3-fluoropyridin-2-yl)amino)piperidin-1-yl)ethan-1-one] | – | 54 | ~3 | 6760
O=C(c1cn2cc(Br)c(O)nc2n1)N1CC[C@H](N2CCc3ccccc3C2)[C@@H](O)C1 [Example 70, (6-bromo-7-hydroxyimidazo[1,2-a]pyrimidin-2-yl)((3S,4S)-4-(3,4-dihydroisoquinolin-2(1H)-yl)-3-hydroxypiperidin-1-yl)methanone] | – | > 10000 | ~45 | 86100
O=C(c1cc(NC2CC3CCC(C2)N3)ncc1F)N1CC[C@H](N2CCc3ccccc3C2)[C@@H](O)C1 (stereo partly drawn) [Example 121, (2-((8-azabicyclo[3.2.1]octan-3-yl)amino)-5-fluoropyridin-4-yl)((3S,4S)-4-(3,4-dihydroisoquinolin-2(1H)-yl)-3-hydroxypiperidin-1-yl)methanone] | – | 1590 | 14 | 2880
Cc1cc(Br)cn2cc(C(=O)N3CC[C@H](N4CCc5ccccc5C4)[C@@H](O)C3)nc12 [Example 135, (6-bromo-8-methylimidazo[1,2-a]pyridin-2-yl)[(3S,4S)-4-(3,4-dihydroisoquinolin-2(1H)-yl)-3-hydroxypiperidin-1-yl]methanone] | 1.7 | 12 | – | –
CCOc1cnc(NC2CCN(C(C)=O)CC2)cc1C(=O)N1CC[C@H](N2CCc3ccccc3C2)[C@@H](O)C1 [Example 107, 1-(4-((4-((3S,4S)-4-(3,4-dihydroisoquinolin-2(1H)-yl)-3-hydroxypiperidine-1-carbonyl)-5-ethoxypyridin-2-yl)amino)piperidin-1-yl)ethan-1-one] | 2.1 | 7.9 | – | –
CC(C#N)c1cnc2nc(C(=O)N3CC[C@H](N4CCc5ccccc5C4)[C@@H](O)C3)cn2c1 (stereo partly drawn) [Example 77, 2-{2-[(3S,4S)-4-(3,4-dihydroisoquinolin-2(1H)-yl)-3-hydroxypiperidine-1-carbonyl]imidazo[1,2-a]pyrimidin-6-yl}propanenitrile] | 2.1 | 13 | – | –
O=C(c1cn2cc(Br)cc(I)c2n1)N1CC[C@H](N2CCc3ccccc3C2)[C@@H](O)C1 [Example 139, (6-bromo-8-iodoimidazo[1,2-a]pyridin-2-yl)[(3S,4S)-4-(3,4-dihydroisoquinolin-2(1H)-yl)-3-hydroxypiperidin-1-yl]methanone] | 1.3 | 7.6 | – | –
O=C(c1cc(NC2CCN3C(=O)CCC3C2)ncc1F)N1CC[C@H](N2CCc3ccccc3C2)[C@@H](O)C1 (single isomer, unassigned) [Example 117] | 1.8 | 3.3 | – | –
COc1nc2nc(C(=O)N3CC[C@H](N4CCc5ccccc5C4)[C@@H](O)C3)cn2cc1Br [Example 69, (6-bromo-7-methoxyimidazo[1,2-a]pyrimidin-2-yl)((3S,4S)-4-(3,4-dihydroisoquinolin-2(1H)-yl)-3-hydroxypiperidin-1-yl)methanone] | – | 55 | 1.2 | 733

Source: patent US12595248B2, “PRMT5 inhibitors” (Merck Sharp & Dohme LLC, priority 2019, dated 2026)
